Like-named read-outs stand apart in the source and are kept apart here.
Tests used:
[1] = molecular target: T1, human Gcg receptor (hGcgR) (Homo sapiens, UniProt P47871); assay: [125I]-Glucagon binding, SPA with membranes of HEK293 cells expressing hGcgR
T1 construct: expressed in transfected cells; crude membranes

[2] = molecular target: T2, human GLP-1 receptor (hGLP-1R) (Homo sapiens, UniProt P43220); assay: [125I]-GLP-1 binding, SPA with membranes of HEK293 cells expressing hGLP-1R
T2 construct: expressed in transfected cells; crude membranes

[3] = molecular target: T3, hGIPR (Homo sapiens, UniProt P48546); assay: Functional cAMP formation (HTRF) in HEK-293 clonal cells expressing hGIPR, 0.1% bovine casein, without or with 1.0% human serum albumin; assay type: cell-based; details: for Emax: percent of maximal response to GIP(1-42)NH2; for EC50: cAMP
T3 construct: expressed in transfected cells
T3 sequence (P48546 22-466): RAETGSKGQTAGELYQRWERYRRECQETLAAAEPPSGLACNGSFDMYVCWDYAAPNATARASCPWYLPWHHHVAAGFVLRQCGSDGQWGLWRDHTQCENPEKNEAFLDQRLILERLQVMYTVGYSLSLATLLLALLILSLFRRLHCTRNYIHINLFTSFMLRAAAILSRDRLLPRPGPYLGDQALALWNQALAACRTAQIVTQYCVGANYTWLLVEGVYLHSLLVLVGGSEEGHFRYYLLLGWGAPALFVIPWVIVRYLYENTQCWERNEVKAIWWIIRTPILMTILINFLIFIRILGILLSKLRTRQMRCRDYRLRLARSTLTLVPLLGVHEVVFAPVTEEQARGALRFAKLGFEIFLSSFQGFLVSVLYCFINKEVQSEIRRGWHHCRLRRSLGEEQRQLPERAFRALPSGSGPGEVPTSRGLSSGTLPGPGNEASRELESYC
Method in brief: (§1)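 Cells were stimulated with peptide for 30 min at 37° C, then lysed in buffer carrying cAMP-d2 and anti-cAMP Eu3+-cryptate for a competitive HTRF read after at least 60 min at room temperature. The 665/620 nm ratio was converted to nM cAMP against a standard curve.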

[4] = molecular target: T4, hGCGR (Homo sapiens, UniProt P47871); assay: Functional cAMP formation (HTRF) in HEK-293 clonal cells expressing hGCGR, 0.1% bovine casein, without or with 1.0% human serum albumin; assay type: cell-based; details: cAMP, 37° C.
T4 construct: expressed in transfected cells
Method in brief: as §1

[5] = molecular target: hGLP-1R (Homo sapiens, UniProt P43220); assay: Functional cAMP formation (HTRF) in HEK-293 clonal cells expressing hGLP-1R, 0.1% bovine casein, without or with 1.0% human serum albumin; assay type: cell-based; parameters: expressed in transfected cells; details: for Emax: percent of maximal response to GLP-1(7-36)NH2, arithmetic mean; for EC50: cAMP, 0.1% bovine casein (no human serum albumin), geometric mean
Method in brief: as §1

hGLP-1R, sequence (P43220 24-463): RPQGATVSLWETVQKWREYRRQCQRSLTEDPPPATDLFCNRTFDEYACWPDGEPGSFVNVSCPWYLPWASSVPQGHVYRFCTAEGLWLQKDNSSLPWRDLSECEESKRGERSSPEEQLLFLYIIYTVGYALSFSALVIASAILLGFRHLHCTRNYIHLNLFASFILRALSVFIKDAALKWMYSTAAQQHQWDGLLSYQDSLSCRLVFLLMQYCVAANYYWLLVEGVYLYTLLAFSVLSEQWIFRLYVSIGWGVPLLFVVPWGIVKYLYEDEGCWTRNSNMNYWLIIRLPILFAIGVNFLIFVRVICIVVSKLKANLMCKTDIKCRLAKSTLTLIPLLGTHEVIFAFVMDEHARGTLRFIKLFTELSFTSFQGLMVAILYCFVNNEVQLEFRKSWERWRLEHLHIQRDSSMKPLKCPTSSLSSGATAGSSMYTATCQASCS
T4 sequence (P47871 26-477): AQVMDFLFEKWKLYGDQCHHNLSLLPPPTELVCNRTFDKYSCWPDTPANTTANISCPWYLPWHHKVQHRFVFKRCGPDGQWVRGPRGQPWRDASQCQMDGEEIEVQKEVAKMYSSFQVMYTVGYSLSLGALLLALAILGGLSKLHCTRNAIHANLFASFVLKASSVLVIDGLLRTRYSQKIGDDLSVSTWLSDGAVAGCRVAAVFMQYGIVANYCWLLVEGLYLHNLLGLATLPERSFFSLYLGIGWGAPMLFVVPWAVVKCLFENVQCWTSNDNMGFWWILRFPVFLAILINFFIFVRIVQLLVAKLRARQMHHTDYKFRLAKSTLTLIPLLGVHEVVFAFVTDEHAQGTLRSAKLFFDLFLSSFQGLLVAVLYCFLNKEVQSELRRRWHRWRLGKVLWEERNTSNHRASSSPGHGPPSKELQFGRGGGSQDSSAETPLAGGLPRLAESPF
T2 sequence (P43220 24-463): as the sequence (P43220 24-463) above
T1 sequence (P47871 26-477): as the sequence (P47871 26-477) above

Row | Structure (SMILES) | Ki ([1]; human GcgR, geometric mean (SEM, n), read-out: Binding Affinity Ki, nM (SEM, n) hGCGR) [nM] | Ki ([2]; human GLP-1R, geometric mean (SEM, n), read-out: Binding Affinity Ki, nM (SEM, n) hGLP-1R) [nM] | Emax ([3]; HEK293, cAMP, 37° C., 0.1% bovine casein and 1.0% human serum albumin, read-out: hGIPR Emax, % ± SEM) [%] | EC50 ([3]; 37° C., 0.1% bovine casein (no human serum albumin), geometric mean, read-out: hGIPR EC50, nM (SEM, n)) [nM] | EC50 ([4]; 0.1% bovine casein (no human serum albumin), geometric mean, read-out: hGCGR EC50, nM (SEM, n)) [nM] | EC50 ([4]; 0.1% bovine casein and 1.0% human serum albumin, geometric mean (SEM, n), read-out: hGCGR EC50, nM (SEM, n)) [nM] | Emax ([5]; HEK293, cAMP, 37° C., 0.1% bovine casein, read-out: hGLP-1R Emax, % ± SEM) [%] | EC50 ([5]; 37° C., read-out: hGLP-1R EC50, nM (SEM, n)) [nM] | Ki [1] [nM] | Ki [2] [nM] | Emax ([3]; HEK293, read-out: hGIPR Emax, % ± SEM, cAMP, 37° C., 0.1% bovine casein and 1.0% human serum albumin) [%] | EC50 ([3]; hGIPR EC50, nM (SEM, n), 37° C., 0.1% bovine casein (no human serum albumin), geometric mean) [nM] | EC50 ([3]; hGIPR EC50, nM (SEM, n), 37° C., 0.1% bovine casein and 1.0% human serum albumin, geometric mean (SEM, n)) [nM] | EC50 ([4]; hGCGR EC50, nM (SEM, n), 0.1% bovine casein (no human serum albumin), geometric mean) [nM] | EC50 ([4]; hGCGR EC50, nM (SEM, n), 0.1% bovine casein and 1.0% human serum albumin, geometric mean (SEM, n)) [nM] | Emax ([5]; HEK293, read-out: hGLP-1R Emax, % ± SEM, cAMP, 37° C., 0.1% bovine casein) [%] | EC50 ([5]; hGLP-1R EC50, nM (SEM, n), 37° C.) [nM]
1 | CC[C@H](C)[C@H](NC(=O)[C@H](CC(C)C)NC(=O)[C@](C)(Cc1ccc(O)cc1)NC(=O)[C@H](CCCCNC(=O)COCCOCCNC(=O)[C@H]1CC[C@H](CNC(=O)CC[C@H](NC(=O)CCCCCCCCCCCCC(=O)O)C(=O)O)CC1)NC(=O)[C@@H](NC(=O)[C@H](Cc1ccccc1)NC(=O)[C@H](CCCN)NC(=O)C(C)(C)NC(=O)[C@H](CCC(N)=O)NC(=O)[C@H](C)NC(=O)[C@H](CCC(N)=O)NC(=O)[C@H](CCCN)NC(=O)[C@H](CC(=O)O)NC(=O)[C@H](CC(C)C)NC(=O)[C@](C)(CC(C)C)NC(=O)[C@@H](NC(=O)C(C)(C)NC(=O)[C@H](Cc1ccncc1)NC(=O)[C@H](CC(=O)O)NC(=O)[C@H](CO)NC(=O)[C@@H](NC(=O)[C@](C)(Cc1ccccc1F)NC(=O)[C@@H](NC(=O)CNC(=O)[C@H](CCC(=O)O)NC(=O)C(C)(C)NC(=O)[C@@H](N)Cc1ccc(O)cc1)[C@@H](C)O)[C@@H](C)O)[C@@H](C)CC)[C@@H](C)CC)C(=O)N[C@@H](CCCCNC(=O)COCCOCCNC(=O)[C@H]1CC[C@H](CNC(=O)CC[C@H](NC(=O)CCCCCCCCCCCCC(=O)O)C(=O)O)CC1)C(=O)NCC(=O)NCC(=O)N1CCC[C@H]1C(=O)N[C@@H](CO)C(=O)N[C@@H](CO)C(=O)NCC(=O)N[C@@H](C)C(=O)N1CCC[C@H]1C(=O)N1CCC[C@H]1C(=O)N1CCC[C@H]1C(=O)N[C@@H](CO)C(N)=O [Example 472] | 258 | 0.254 | 76.3 | 0.0131 | > 9950 | > 9950 | 118 | 0.154 |  |  |  |  |  |  |  |  | 
2 | CC[C@H](C)[C@H](NC(=O)[C@H](CC(C)C)NC(=O)[C@](C)(Cc1ccc(O)cc1)NC(=O)[C@H](CCCCNC(=O)COCCOCCNC(=O)COCCOCCNC(=O)CC[C@H](NC(=O)CC[C@H](NC(=O)CCCCCCCCCOc1ccc(C(=O)O)cc1)C(=O)O)C(=O)O)NC(=O)[C@@H](NC(=O)[C@H](Cc1ccccc1)NC(=O)[C@H](CCCN)NC(=O)C(C)(C)NC(=O)[C@H](CCC(N)=O)NC(=O)[C@H](C)NC(=O)[C@H](CCC(N)=O)NC(=O)[C@H](CCCN)NC(=O)[C@H](CC(=O)O)NC(=O)[C@H](CC(C)C)NC(=O)[C@](C)(CC(C)C)NC(=O)[C@@H](NC(=O)C(C)(C)NC(=O)[C@H](Cc1ccncc1)NC(=O)[C@H](CC(=O)O)NC(=O)[C@H](CO)NC(=O)[C@@H](NC(=O)[C@](C)(Cc1ccccc1F)NC(=O)[C@@H](NC(=O)CNC(=O)[C@H](CCC(=O)O)NC(=O)C(C)(C)NC(=O)[C@@H](N)Cc1ccc(O)cc1)[C@@H](C)O)[C@@H](C)O)[C@@H](C)CC)[C@@H](C)CC)C(=O)N[C@@H](CCCCNC(=O)COCCOCCNC(=O)COCCOCCNC(=O)CC[C@H](NC(=O)CC[C@H](NC(=O)CCCCCCCCCOc1ccc(C(=O)O)cc1)C(=O)O)C(=O)O)C(=O)NCC(=O)NCC(=O)N1CCC[C@H]1C(=O)N[C@@H](CO)C(=O)N[C@@H](CO)C(=O)NCC(=O)N[C@@H](C)C(=O)N1CCC[C@H]1C(=O)N1CCC[C@H]1C(=O)N1CCC[C@H]1C(=O)N[C@@H](CO)C(N)=O [Example 475] |  |  |  |  |  |  |  |  | 139 | 0.189 | 84.6 | 0.012 | 0.211 | > 9950 | > 9950 | 116 | 0.143
